According to patent US20190256929A1, “PHARMACODYNAMIC BIOMARKERS FOR PERSONALIZED CANCER CARE USING EPIGENETIC MODIFYING AGENTS” (ORYZON GENOMICS, S.A., priority 2016, published 2019):

Tested on: small cell lung cancer cell lines
Assay: qRT-PCR time- and dosage-dependent expression change of candidate PD markers ASCL1, GRP, NOTCH1 in SCLC cell lines
Type: cell-based, human
Experimental: Seven small cell lung cancer cell lines were treated with 0.1 nM, 1 nM and 10 nM (trans)-N1-((1R,2S)-2-phenylcyclopropyl)cyclohexane-1,4-diamine or vehicle 24 hr, 96 hr and 7 days. Lysates were prepared by lysis in RNA lysis buffer containing 1% β-mercaptoethanol. RNA extraction was performed using a Maxwell 16 instrument and a Maxwell 16 LEV simply RNA cells Kit (Promega), according to the manufacturer's instructions. The mRNA expression levels of each cell line after treatment were then measured using qRT-PCR. The RT-qPCR reaction was conducted using a one-step kit (ABI), with a duplexed house-keeping control (Assay ID Hs02800695_m1) using the assays in the table below. The log 2 fold changes for each gene were calculated by comparing with the vehicle controlled samples at 24 hr sampling point.
Table 6 contains the dose-dependent effect on expression changes for candidate PD markers ASCL1 (Assay ID Hs04187546_g1), GRP (Assay ID Hs01107047_m1) and NOTCH1 (Assay ID Hs01062014_m1).

[1] = SHP-77, 0.1 nM, 24 hrs, vs vehicle at 24 hr
[2] = SHP-77, 0.1 nM, 96 hrs, vs vehicle at 24 hr
[3] = SHP-77, 0.1 nM, 168 hrs, vs vehicle at 24 hr
[4] = SHP-77, 1 nM, 24 hrs, vs vehicle at 24 hr
[5] = SHP-77, 1 nM, 96 hrs, vs vehicle at 24 hr
[6] = SHP-77, 1 nM, 168 hrs, vs vehicle at 24 hr
[7] = SHP-77, 10 nM, 24 hrs, vs vehicle at 24 hr
[8] = SHP-77, 10 nM, 96 hrs, vs vehicle at 24 hr
[9] = SHP-77, 10 nM, 168 hrs, vs vehicle at 24 hr

SMILES: N[C@H]1CC[C@H](N[C@@H]2C[C@H]2c2ccccc2)CC1 [RG6016, (trans)-N1-((1R,2S)-2-phenylcyclopropyl)cyclohexane-1,4-diamine]
- Log2_FC ASCL1 (NCI-H510A, 1 nM, 168 hrs): −0.51
- Log2_FC GRP (NCI-H510A, 1 nM, 168 hrs): −2.34
- Log2_FC NOTCH1 (NCI-H510A, 1 nM, 168 hrs): 3.98
- Log2_FC ASCL1 (NCI-H510A, 10 nM, 24 hrs): −0.28
- Log2_FC GRP (NCI-H510A, 10 nM, 24 hrs): −0.35
- Log2_FC NOTCH1 (NCI-H510A, 10 nM, 24 hrs): 1.60
- Log2_FC ASCL1 (NCI-H510A, 10 nM, 96 hrs): −0.55
- Log2_FC GRP (NCI-H510A, 10 nM, 96 hrs): −2.02
- Log2_FC NOTCH1 (NCI-H510A, 10 nM, 96 hrs): 2.89
- Log2_FC ASCL1 (NCI-H510A, 10 nM, 168 hrs): −0.64
- Log2_FC GRP (NCI-H510A, 10 nM, 168 hrs): −2.53
- Log2_FC NOTCH1 (NCI-H510A, 10 nM, 168 hrs): 4.16
- Log2_FC NOTCH1 (NCI-H526, 0.1 nM, 24 hrs, vs vehicle at 24 hr): 0.04
- Log2_FC NOTCH1 (NCI-H526, 0.1 nM, 96 hrs, vs vehicle at 24 hr): 0.51
- Log2_FC NOTCH1 (NCI-H526, 0.1 nM, 168 hrs, vs vehicle at 24 hr): 0.55
- Log2_FC NOTCH1 (NCI-H526, 1 nM, 24 hrs, vs vehicle at 24 hr): 0.27
- Log2_FC NOTCH1 (NCI-H526, 1 nM, 96 hrs, vs vehicle at 24 hr): 0.53
- Log2_FC NOTCH1 (NCI-H526, 1 nM, 168 hrs, vs vehicle at 24 hr): 0.96
- Log2_FC NOTCH1 (NCI-H526, 10 nM, 24 hrs, vs vehicle at 24 hr): 0.41
- Log2_FC NOTCH1 (NCI-H526, 10 nM, 96 hrs, vs vehicle at 24 hr): 0.70
- Log2_FC NOTCH1 (NCI-H526, 10 nM, 168 hrs, vs vehicle at 24 hr): 0.33
- Log2_FC ASCL1 (NCI-H1417, 0.1 nM, 24 hrs): −0.19
- Log2_FC GRP (NCI-H1417, 0.1 nM, 24 hrs): 0.24
- Log2_FC NOTCH1 (NCI-H1417, 0.1 nM, 24 hrs): 0.14
- Log2_FC ASCL1 (NCI-H1417, 0.1 nM, 96 hrs): 0.12
- Log2_FC GRP (NCI-H1417, 0.1 nM, 96 hrs): −0.25
- Log2_FC NOTCH1 (NCI-H1417, 0.1 nM, 96 hrs): 0.98
- Log2_FC ASCL1 (NCI-H1417, 0.1 nM, 168 hrs): 0.13
- Log2_FC GRP (NCI-H1417, 0.1 nM, 168 hrs): −0.51
- Log2_FC NOTCH1 (NCI-H1417, 0.1 nM, 168 hrs): 0.86
- Log2_FC ASCL1 (NCI-H1417, 1 nM, 24 hrs): −0.20
- Log2_FC GRP (NCI-H1417, 1 nM, 24 hrs): −0.25
- Log2_FC NOTCH1 (NCI-H1417, 1 nM, 24 hrs): 1.40
- Log2_FC ASCL1 (NCI-H1417, 1 nM, 96 hrs): −0.27
- Log2_FC GRP (NCI-H1417, 1 nM, 96 hrs): −1.06
- Log2_FC NOTCH1 (NCI-H1417, 1 nM, 96 hrs): 3.04
- Log2_FC ASCL1 (NCI-H1417, 1 nM, 168 hrs): −0.19
- Log2_FC GRP (NCI-H1417, 1 nM, 168 hrs): −0.68
- Log2_FC NOTCH1 (NCI-H1417, 1 nM, 168 hrs): 2.55
- Log2_FC ASCL1 (NCI-H1417, 10 nM, 24 hrs): −0.25
- Log2_FC GRP (NCI-H1417, 10 nM, 24 hrs): −0.35
- Log2_FC NOTCH1 (NCI-H1417, 10 nM, 24 hrs): 1.86
- Log2_FC ASCL1 (NCI-H1417, 10 nM, 96 hrs): −0.54
- Log2_FC GRP (NCI-H1417, 10 nM, 96 hrs): −1.13
- Log2_FC NOTCH1 (NCI-H1417, 10 nM, 96 hrs): 3.14
- Log2_FC ASCL1 (NCI-H1417, 10 nM, 168 hrs): −0.66
- Log2_FC GRP (NCI-H1417, 10 nM, 168 hrs): −1.14
- Log2_FC NOTCH1 (NCI-H1417, 10 nM, 168 hrs): 3.22
- Log2_FC ASCL1 (NCI-H1876, 0.1 nM, 24 hrs): 0.16
- Log2_FC GRP (NCI-H1876, 0.1 nM, 24 hrs): 0.41
- Log2_FC NOTCH1 (NCI-H1876, 0.1 nM, 24 hrs): 0.82
- Log2_FC ASCL1 (NCI-H1876, 0.1 nM, 96 hrs): −0.58
- Log2_FC GRP (NCI-H1876, 0.1 nM, 96 hrs): −1.58
- Log2_FC NOTCH1 (NCI-H1876, 0.1 nM, 96 hrs): −0.76
- Log2_FC ASCL1 (NCI-H1876, 0.1 nM, 168 hrs): 0.35
- Log2_FC NOTCH1 (NCI-H1876, 0.1 nM, 168 hrs): −0.59
- Log2_FC ASCL1 (NCI-H1876, 1 nM, 24 hrs): 0.04
- Log2_FC GRP (NCI-H1876, 1 nM, 24 hrs): 0.70
- Log2_FC NOTCH1 (NCI-H1876, 1 nM, 24 hrs): 2.28
- Log2_FC ASCL1 (NCI-H1876, 1 nM, 96 hrs): −0.54
- Log2_FC GRP (NCI-H1876, 1 nM, 96 hrs): −1.96
- Log2_FC NOTCH1 (NCI-H1876, 1 nM, 96 hrs): 1.08
- Log2_FC ASCL1 (NCI-H1876, 1 nM, 168 hrs): 0.32
- Log2_FC GRP (NCI-H1876, 1 nM, 168 hrs): −0.54
- Log2_FC ASCL1 (NCI-H1876, 10 nM, 24 hrs): −0.02
- Log2_FC GRP (NCI-H1876, 10 nM, 24 hrs): 0.38
- Log2_FC NOTCH1 (NCI-H1876, 10 nM, 24 hrs): 2.67
- Log2_FC ASCL1 (NCI-H1876, 10 nM, 96 hrs): −0.82
- Log2_FC NOTCH1 (NCI-H1876, 10 nM, 96 hrs): 2.07
- Log2_FC ASCL1 (NCI-H1876, 10 nM, 168 hrs): 0.03
- Log2_FC GRP (NCI-H1876, 10 nM, 168 hrs): −1.38
- Log2_FC NOTCH1 (NCI-H1876, 10 nM, 168 hrs): 2.55
- Log2_FC ASCL1 (NCI-H2171, 0.1 nM, 24 hrs): −0.14
- Log2_FC GRP (NCI-H2171, 0.1 nM, 24 hrs): 0.01
- Log2_FC NOTCH1 (NCI-H2171, 0.1 nM, 24 hrs): 0.49
- Log2_FC ASCL1 (NCI-H2171, 0.1 nM, 96 hrs): −0.29
- Log2_FC GRP (NCI-H2171, 0.1 nM, 96 hrs): −1.96
- Log2_FC NOTCH1 (NCI-H2171, 0.1 nM, 96 hrs): 0.95
- Log2_FC ASCL1 (NCI-H2171, 0.1 nM, 168 hrs): −0.16
- Log2_FC GRP (NCI-H2171, 0.1 nM, 168 hrs): −1.11
- Log2_FC NOTCH1 (NCI-H2171, 0.1 nM, 168 hrs): 0.90
- Log2_FC ASCL1 (NCI-H2171, 1 nM, 24 hrs): −0.06
- Log2_FC NOTCH1 (NCI-H2171, 1 nM, 24 hrs): 0.75
- Log2_FC ASCL1 (NCI-H2171, 1 nM, 96 hrs): −0.43
- Log2_FC GRP (NCI-H2171, 1 nM, 96 hrs): −1.17
- Log2_FC NOTCH1 (NCI-H2171, 1 nM, 96 hrs): 1.17
- Log2_FC ASCL1 (NCI-H2171, 1 nM, 168 hrs): −0.02
- Log2_FC GRP (NCI-H2171, 1 nM, 168 hrs): −1.56
- Log2_FC NOTCH1 (NCI-H2171, 1 nM, 168 hrs): 1.41
- Log2_FC ASCL1 (NCI-H2171, 10 nM, 24 hrs): −0.16
- Log2_FC GRP (NCI-H2171, 10 nM, 24 hrs): −0.37
- Log2_FC NOTCH1 (NCI-H2171, 10 nM, 24 hrs): 0.82
- Log2_FC ASCL1 (NCI-H2171, 10 nM, 96 hrs): −0.27
- Log2_FC GRP (NCI-H2171, 10 nM, 96 hrs): −0.46
- Log2_FC NOTCH1 (NCI-H2171, 10 nM, 96 hrs): 1.22
- Log2_FC ASCL1 (NCI-H2171, 10 nM, 168 hrs): −0.11
- Log2_FC GRP (NCI-H2171, 10 nM, 168 hrs): −0.87
- Log2_FC NOTCH1 (NCI-H2171, 10 nM, 168 hrs): 1.63
- Log2_FC ASCL1 [1]: −0.11
- Log2_FC GRP [1]: 0.17
- Log2_FC ASCL1 [2]: 0.11
- Log2_FC GRP [2]: 0.74
- Log2_FC ASCL1 [3]: −0.36
- Log2_FC GRP [3]: 0.43
- Log2_FC ASCL1 [4]: 0.52
- Log2_FC GRP [4]: 1.20
- Log2_FC ASCL1 [5]: 0.38
- Log2_FC GRP [5]: 0.83
- Log2_FC ASCL1 [6]: −0.33
- Log2_FC GRP [6]: 0.16
- Log2_FC ASCL1 [7]: −0.07
- Log2_FC GRP [7]: −0.10
- Log2_FC ASCL1 [8]: 0.22
- Log2_FC GRP [8]: 0.56
- Log2_FC ASCL1 [9]: −0.50
- Log2_FC GRP [9]: −0.06
